Results on 19 compounds are retold here after patent publication US20240067625A1, “SMALL-MOLECULE MODULATORS OF THE ORPHAN NUCLEAR RECEPTOR TLX” (priority 2020, published 2024).

One assay concerns the target TLX LBD (Homo sapiens (Human), UniProt Q9Y466). The assay can be described thus: ALPHA screen assay for TLX LBD and coactivator peptide recruitment. The class given is biochemical. To be noted: for Normalized fold increase at 200 μM: Table 2; for EC50 / Average ALPHA signal at 200 μM (std. dev.): Table 3; for Average ALPHA signal at 200 μM (std. dev.): mean (std. dev.). How it is done:
Assays were performed according to the manufacturer's protocol (PerkinElmer, USA), with the following modifications: Ligands were tested for TLX-coactivator binding in 50 mM phosphate buffer, 150 mM NaCl, pH 7, 1 mM DTT and 100 μM CHAPS. Ligands were dissolved and diluted in DMSO as stocks and were prepared in assay buffer from the original stock in the 100% DMSO and added to the assay plate. Biotinylated SRC peptide and polyhistidine tagged TLX LBD were diluted in assay buffer, subsequently added to respective ALPHA beads, under low light. The plates were spun down, mixed with a shaker and incubated for 120 minutes and read on a TECAN Plate reader using the manufacturer's protocol.

Assay [1] relates to neural stem and progenitor cells in the adult hippocampal neurogenic niche. The assay can be described thus: In vivo neurogenesis study: neural stem cell proliferation (CldU) after oral dosing. The arrangement: species or system C57BL/6J mice. To be noted: 3 mg/kg oral gavage daily for 5 days; CldU labelling; FIG. 11.
Description: Small Molecule Oral Gavage Delivery and Chloro-Deoxyuridine (CldU) Injections. Small molecule candidates (3 mg/kg of animal) were delivered through oral gavage to animals (N=3-4) each day at the same time for 5 consecutive days. On the final day, animals received four consecutive IP injections of CldU (85 mg/kg dissolved in sterile saline) 2 hr apart.
Immunohistochemistry. Animals were anesthetized and perfused transcardially with 30 ml of phosphate buffered saline (PBS) followed by 30 ml of 4% (w/v) ice cold paraformaldehyde (PFA) in PBS. Brains were post fixed in 4% PFA solution overnight at 4° C. PFA was replaced with PBS and tissues were kept at 4° C. for further use. Free floating serial sagittal sections of 50 μm thickness were cut using Vibratome 1500 sectioning system and collected in 5 parallel sets each containing 14 sections 250 μm apart from each other. […] Following initial permeabilization and blocking at room temperature (RT) for 2 hrs, sections were incubated with primary antibodies overnight at 4° C. Sections were then washed three times and incubated with fluorochrome-conjugated secondary antibodies for 2 hrs at RT. Sections were washed three times with PBS and mounted on slides with DakoCytomation Fluorescent Mounting Medium (DakoCytomation, Carpinteria, CA) as anti-fading agent.
Sections were counterstained with DAPI (5 μg/mL, Sigma) at 1:1000.
Confocal microscopy and stereology. Quantification and characterization of proliferating cell types was performed according to previously described optical dissector methods. […] An observer blind to experimental groups counted immunoreactive cells that had the mentioned properties below in every fifth sagittal section throughout the dentate gyrus. Neural stem cells were identified according to their triangular Sox2^+ nuclei located in SGZ with a GFAP^+ radial process spanning through granule cell layer.
For quantification that required analysis of phenotypic morphology and/or overlapping markers, 20 μm thick sections were scanned with confocal microscope (Zeiss LSM 710). 3D reconstruction and orthogonal views were acquired via ZEN2012 SP1 software (Zeiss, Thornwood, NY). Cells in the uppermost focal plane were excluded from the quantification. Total counts from 14 sections were multiplied by 10 to get the total number of cells in two dentate gyri. The ratio of CldU^+ cells among a certain cell type was calculated by dividing the CldU^+ cells by the total number of cells in that cell type.
Statistics. Statistical analysis was performed using GraphPad Prism 8.0 (GraphPad RRID:SCR_002798). Experiments involving 2 groups were compared using un-paired Student t-test. […]
A further assay deals with human brain organoids. The assay can be described thus: TLX agonist activity in human brain organoids (RNA expression of NSC and immature neuron genes). The class given is cell-based. The note with it: 25 μM for 3 days, organoids at 68 days; compared to controls; FIG. 13. An excerpt:
Human induced pluripotent cells (iPSCs) were used to generate brain organoids using a modified Pasca protocol as previously described. See, Manganas, et al. (Sci Rep […], 11: 5546) and Pasca, et al. (Nat. Methods 2015, 12: 671-678), which are incorporated herein by reference. Within 2 months, the protocol produces organoids with a variety of cell types that mimic early human brain (neural stem cells, progenitors, different types of neurons at different maturation stage, astrocytes, oligodendrocytes). About 300 organoids can be generated per batch and thus the model provides for testing of different experimental paradigms in the same batch. Organoids were treated at 68-days with 25 μM of reference compound 29, test compounds 95 and […]), or vehicle (0.03N HCl) for 3 days, after which they were processed to examine the expression of NSC genes (PAX6, BLBP) and immature neuron genes (PROM1, DCX).

Chain of TLX LBD (Q9Y466 155-383): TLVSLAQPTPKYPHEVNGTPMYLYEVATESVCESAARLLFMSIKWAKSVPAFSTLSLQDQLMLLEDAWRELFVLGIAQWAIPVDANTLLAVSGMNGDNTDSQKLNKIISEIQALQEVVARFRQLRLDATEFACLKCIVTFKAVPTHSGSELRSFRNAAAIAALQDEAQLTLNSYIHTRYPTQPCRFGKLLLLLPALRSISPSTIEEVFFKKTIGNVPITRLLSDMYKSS

The term EC50 denotes the concentration at which the effect is half-maximal. Read a high EC50 as a less potent agent. `CC(C)CCNc1ncccc1C(=O)N1CCN(Cc2ccccc2)[C@H](C)C1` [Compound 1, (R)-(4-benzyl-3-methylpiperazin-1-yl)(2-(isopentylamino)pyridin-3-yl)methanone]: on TLX LBD, the “Normalized fold increase at 200 μM” value was 1.97X, the response was half-maximal at 0.0853 nM (EC50) and the “Average ALPHA signal at 200 μM (std. dev.)” value (shortened to “Average ALPHA signal”) was 1.97 (0.07). The “cell proliferation of neural stem and progenitor cells in the adult hippocampal neurogenic niche” value (“cell proliferation” below) in assay [1] is listed as “increase in cell proliferation”.
Turning to `CC(C)CCNc1ncccc1C(=O)N1CCN(Cc2ccccc2)[C@@H](C)C1` [Compound 2, (S)-(4-benzyl-3-methylpiperazin-1-yl)(2-(isopentylamino)pyridin-3-yl)methanone], on TLX LBD, the “Normalized fold increase at 200 μM” value was found to be 2.45X, the EC50 was 0.0637 nM and the “Average ALPHA signal” value is on record as 2.45 (0.05). Further, the “cell proliferation” value in assay [1] is given as “increase in cell proliferation”.
For the compound `CC(C)CCNc1ncccc1C(=O)N1CCN(Cc2ccccc2)C[C@H]1C` [Compound 3, (R)-(4-benzyl-2-methylpiperazin-1-yl)(2-(isopentylamino)pyridin-3-yl)methanone], at TLX LBD, the “Normalized fold increase at 200 μM” value was 2.49X, a half-maximal response (EC50) required 0.0281 nM and the “Average ALPHA signal” value is recorded as 2.49 (0.12). For the same compound, the “cell proliferation” value in assay [1] is recorded as “increase in cell proliferation”.
In the case of `CC(C)CCNc1ncccc1C(=O)N1CCN(Cc2ccccc2)C[C@@H]1C` [Compound 4, (S)-(4-benzyl-2-methylpiperazin-1-yl)(2-(isopentylamino)pyridin-3-yl)methanone], at TLX LBD, the “Normalized fold increase at 200 μM” value worked out at 2.29X, the response was half-maximal at 0.0298 nM (EC50) and the “Average ALPHA signal” value is listed as 2.29 (0.09). The “cell proliferation” value in assay [1] is “increase in cell proliferation”.
Regarding `CC(C)CCNc1ncccc1C(=O)N1CCN(Cc2ccccc2)CC1` [Compound 29, (4-benzylpiperazin-1-yl)(2-(isopentylamino)pyridin-3-yl)methanone, reference compound], on TLX LBD, the EC50 came out at 0.0361 nM and the “Average ALPHA signal” value is recorded as 2.52 (0.09). Further, the “expression of NSC genes (PAX6, BLBP) and immature neuron genes (PROM1, DCX)” value (shortened to “expression of NSC genes”) in the assay on human brain organoids is reported as “did not lead to a substantial difference in gene expression”.
`CC(C)CCNc1ncccc1C(=O)N1C[C@@H](C)N(Cc2ccccc2)C[C@H]1CC(=O)O` [Compound 83]: on TLX LBD, the “Average ALPHA signal” value is reported as 1.02 (0.03).
On to `CC(C)CCNc1ncccc1C(=O)N1C[C@@H](C)N(Cc2ccccc2)C[C@@H]1CC(=O)O` [Compound 84], for which the “Average ALPHA signal” value at TLX LBD is listed as 1.09 (0.01).
Consider `CC(C)Nc1ncccc1C(=O)N1CCN(Cc2ccccc2)[C@H](C)C1` [Compound 85], for which, at TLX LBD, the “Average ALPHA signal” value was 1.48 (0.16).
For `C[C@@H]1CN(C(=O)c2cccnc2NC2CC2)CCN1Cc1ccccc1` [Compound 86], the “Average ALPHA signal” value at TLX LBD is recorded as 1.35 (0.04).
The same measure, in the same setting: for `CC(C)CNc1ncccc1C(=O)N1CCN(Cc2ccccc2)[C@H](C)C1` [Compound 87] the value was 2.07 (0.03); for `CNc1ncccc1C(=O)N1CCN(Cc2ccccc2)[C@H](C)C1` [Compound 88], 2.17 (0.21).
As for `CC(C)CNc1ncccc1C(=O)N1CCN(Cc2ccccc2)[C@@H](C)C1` [Compound 89], the “Average ALPHA signal” value at TLX LBD is 1.98 (0.05).
With `CC(C)Nc1ncccc1C(=O)N1CCN(Cc2ccccc2)[C@@H](C)C1` [Compound 90], the “Average ALPHA signal” value at TLX LBD is reported as 1.57 (0.06).
For the compound `C[C@H]1CN(C(=O)c2cccnc2NC2CC2)CCN1Cc1ccccc1` [Compound 91], at TLX LBD, the “Average ALPHA signal” value is reported as 1.48 (0.04).
In the case of `CNc1ncccc1C(=O)N1CCN(Cc2ccccc2)[C@@H](C)C1` [Compound 92], the “Average ALPHA signal” value on TLX LBD is on record as 1.85 (0.10).
For the compound `CC(C)CCNc1ncccc1C(=O)N1CCN(Cc2ccccc2)C[C@H]1CC(C)C` [Compound 93], at TLX LBD, the “Average ALPHA signal” value is 3.46 (0.10).
For the compound `CC(C)CCNc1ncccc1C(=O)N1CCN(Cc2ccccc2)C[C@@H]1CC(C)C` [Compound 94], on TLX LBD, the EC50 was found to be 0.003 nM and the “Average ALPHA signal” value is 3.65 (0.10).
Regarding `CC(C)CCNc1ncccc1C(=O)N1CCN(Cc2ccccc2)C[C@H]1Cc1ccccc1` [Compound 95], at TLX LBD, the “Average ALPHA signal” value is given as 2.37 (0.19). In the assay with human brain organoids, the “expression of NSC genes” value was “substantially increased the expression levels of tested genes”.
Take `CC(C)CCNc1ncccc1C(=O)N1CCN(Cc2ccccc2)C[C@@H]1Cc1ccccc1` [Compound 96]: on TLX LBD, a half-maximal response (EC50) required 0.00315 nM and the “Average ALPHA signal” value is recorded as 2.41 (0.07). The “expression of NSC genes” value with human brain organoids is reported as “substantially increased the expression levels of tested genes”.
